{
  "source": "patent US9034906B2",
  "about": "“EP4 agonist” (Asahi Glass Company, Limited, priority 2008, dated 2015)",
  "key": {"[1]": {"target": "T1, human EP1 (Homo sapiens, UniProt P34995)", "T1 construct": "expressed in transfected cells; host or cells: COS-7 (membranes)", "T1 sequence (P34995 1-402)": "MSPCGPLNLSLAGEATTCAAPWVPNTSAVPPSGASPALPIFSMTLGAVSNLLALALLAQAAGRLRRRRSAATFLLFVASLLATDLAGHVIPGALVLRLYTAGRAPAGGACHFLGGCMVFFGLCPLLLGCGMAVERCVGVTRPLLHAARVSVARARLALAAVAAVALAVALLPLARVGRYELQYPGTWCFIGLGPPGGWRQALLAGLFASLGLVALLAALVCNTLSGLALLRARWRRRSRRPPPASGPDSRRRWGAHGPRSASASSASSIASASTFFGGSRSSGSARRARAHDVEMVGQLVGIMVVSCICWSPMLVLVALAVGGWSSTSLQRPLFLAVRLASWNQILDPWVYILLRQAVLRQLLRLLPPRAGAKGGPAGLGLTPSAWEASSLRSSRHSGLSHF", "assay": "Receptor affinity, tritium-labeled PGE2 binding to membranes of transfected COS-7 cells", "settings": "COS-7 cell membranes", "description": "PG receptor affinity of compound F and compound J of the present invention was evaluated. Compound F used was one synthesized in Example 9, and compound J was prepared by separating and purifying the compound synthesized in Example 14 with a column (the same preparations were used in the following Examples). COS-7 cells were transfected with the genes of mouse EP4, human EP1-4 or human IP to overexpress the receptor and then the cell membranes were collected. As a labeled ligand, tritium-labeled PGE2 was used for EPs; tritium-labeled iloprost, for IP. The dissociation constant Kd value was obtained and inhibition constant Ki value of each test compound was determined in a conventional method. As a reference control, PGE2 was used for EPs; beraprost sodium (BPS), for IP."}, "[2]": {"system": "IL-2", "assay": "Suppression of IL-2 production by anti-CD3/anti-CD28 stimulated CD4 positive T cells", "type": "cell-based", "settings": "human CD4 positive T cells, anti-CD3 and anti-CD28 antibody, 24 hr, ELISA; geometric mean of three volunteers", "description": "Using human peripheral blood, an anti-inflammatory effect of compounds F and J in vitro was studied. Blood was collected from 3 healthy volunteers, and CD4 positive T cells were prepared. Anti-CD3 antibody and anti-CD28 antibody were added, and 24 hr later the amounts of IL-2 and TNFα released in the medium were measured by ELISA. […] The amount of IP-10 released into the medium for 48 hr was measured with ELISA. In both cases, the test compound was added 30 min before stimulation.\nEach value is a geometric mean of three volunteers."}},
  "data": [
    {"smiles": "CCCCC[C@H](O)/C=C/[C@H]1[C@H](O)CC(=O)[C@@H]1C/C=C\\CCCC(=O)O", "note": "[PGE2]", "values": [
      {"measurement": "Ki", "setting": "[1]", "value": 2.9, "unit": "nM"},
      {"measurement": "IC50", "setting": "[2]", "value": 0.062, "unit": "nM"}
    ]}
  ]
}
